This passage reports Kd results from PubChem BioAssay AID608 (Sanford-Burnham Center for Chemical Genomics, 2007).

The structures appear in SMILES notation. The source made the active and inactive calls. No rule for the calls is given here.

Chain of Peptidyl-prolyl cis-trans isomerase FKBP1A (Homo sapiens) (P62942 whole entry, looked up): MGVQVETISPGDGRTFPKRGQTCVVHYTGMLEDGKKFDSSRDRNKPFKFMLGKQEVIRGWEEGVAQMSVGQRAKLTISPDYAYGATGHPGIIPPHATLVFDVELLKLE

The assay has as its target Peptidyl-prolyl cis-trans isomerase FKBP1A (Homo sapiens) (UniProt P62942). The experiment in a line: FKBP12 binders, biophysical, NMR detection (AID 608). As to conditions: NMR binding, purified FKBP12.
As usually defined, the Kd is the constant that tells how readily two partners part at equilibrium. With `CC(C)CCCC(C)[C@H]1CCC2C3CC[C@@H]4C[C@H](O)CC[C@]4(C)C3CC[C@@]21C` (stereo partly specified), the Kd was > 4 mM (inactive). The value for `O=C1CN(C(=O)CN2CCOCC2)c2ccccc2N1` was > 4 mM (inactive); that for `CCn1ccc(C(=O)Nc2nccs2)n1` was > 4 mM (inactive); that for `Oc1ccc(/C=C/c2cc(O)cc(O)c2)cc1` was > 4 mM (inactive). As to `Cc1cc(N)cc(C)c1OCC(=O)N1CCOCC1`, the Kd was > 4 mM (inactive). With `O=C(O)c1ccc(-n2cccc2)cc1`, the Kd was > 4 mM (inactive). The value for `COc1ccccc1NC(=O)C1CCCCC1` was > 4 mM (inactive); that for `Cc1ccsc1/C=c1\sc2ncnn2c1=O` was > 4 mM (inactive). For the molecule `O=C(Nc1ccc2c(c1)OCO2)c1cnn2cccnc12`, the Kd was > 4 mM (inactive).

Regarding `COC(=O)C[C@H]1C(C)(C)C(OC(C)=O)[C@]2(O)C=C3C(CC[C@]4(C)C3CC(=O)O[C@H]4c3ccoc3)C1(C)C2=O` (stereo partly specified), the Kd is > 4 mM (inactive). `CSc1nn(-c2ccccc2)c(N)c1C#N`: the Kd was > 4 mM (inactive). In the case of `OC12C=CC(CC1)CC2`, the Kd is > 4 mM (inactive). The value for `CCCCCCCCCCCC1=C(O)C(=O)C=C(O)C1=O` was > 4 mM (inactive). In the case of `NC(=O)c1cc(N)ccc1N1CCCCC1`, the Kd was > 4 mM (inactive). The value for `COC(=O)[C@@H]1OC(=O)[C@H]2O[C@@]23[C@@]1(C)CCC1[C@@]2(C)CCC(=O)C(C)(C)C2C[C@@H](OC(C)=O)[C@]13C` (stereo partly specified) was > 4 mM (inactive). In the case of `CC[C@@]1(O)C[C@H](O)c2c(cc3c(c2O)C(=O)c2c(O)ccc(O)c2C3=O)[C@H]1C(=O)OC`, the Kd is > 4 mM (inactive). The value for `O=c1cc(CO)oc(CN2CCCCC2)c1O` was > 4 mM (inactive); that for `Nc1cc(N)nc(SCc2cccnc2)n1` was > 4 mM (inactive); that for `CC(=O)Nn1c(=O)[nH]c2ccccc2c1=O` was > 4 mM (inactive).

As for `O=c1cnnc(Nc2ccc(O)cc2)[nH]1`, the Kd is > 4 mM (inactive).

Turning to `O=C(O)C1COc2ccccc2O1` (stereo unspecified), the Kd is > 4 mM (inactive). `COc1cccc(Oc2ccc(N)cc2)c1`: the Kd is > 4 mM (inactive).

On to `COC(=O)Nc1c(C)n(C)n(-c2ccccc2)c1=O`, for which the Kd was > 4 mM (inactive).

Take `Cc1cc(Cl)ccc1NC(=O)C(N)=O`: the Kd was > 4 mM (inactive). On to `CCCn1cnc2sc(C(N)=O)c(C)c2c1=O`, for which the Kd is > 4 mM (inactive).

On to `O=C(/C=C/c1ccccc1)c1ccc(O[C@@H]2O[C@H](CO)[C@@H](O)[C@H](O)[C@H]2O)cc1O`, for which the Kd was > 4 mM (inactive). With `Nc1cc(F)cc(F)c1`, the Kd was > 4 mM (inactive). Turning to `COc1ccc(-c2oc3c(CC=C(C)C)c(O[C@@H]4O[C@H](CO)[C@@H](O)[C@H](O)[C@H]4O)cc(O)c3c(=O)c2O[C@@H]2O[C@@H](C)[C@H](O)[C@@H](O)[C@H]2O)cc1`, the Kd was > 4 mM (inactive). Take `Cc1cc(=O)n2ccc(CN3CCOCC3)c(O)c2n1`: the Kd was > 4 mM (inactive).

As for `Nc1cc(=O)[nH]c(=S)n1CCc1ccccc1`, the Kd was > 4 mM (inactive).

For `O=C(O)CCC(=O)Nc1nccs1`, the Kd was > 4 mM (inactive). The value for `COC(=O)CSc1ncnc2c(C)csc12` was > 4 mM (inactive); that for `COc1ccc(-c2c(C)n([O-])c(C)c(C)[n+]2=O)cc1` was > 4 mM (inactive). The value for `Nc1ccc(NC(=O)c2ccco2)c(Cl)c1` was > 4 mM (inactive). `NC(=O)c1oc2ccccc2c1N`: the Kd is > 4 mM (inactive). The value for `COc1ccc(C2(C)NC(=O)NC2=O)cc1` (stereo unspecified) was > 4 mM (inactive). As for `O=C1c2cccnc2C(=O)N1Cc1ccc2c(c1)OCO2`, the Kd is > 4 mM (inactive). As to `Cc1ccc(Nc2nc(N)nc(CC#N)n2)cc1`, the Kd was > 4 mM (inactive).

Take `O=C(O)CC1C(=O)NCCN1Cc1ccccc1` (stereo unspecified): the Kd was > 4 mM (inactive). The value for `NC1=NN(c2ccccc2)C(=O)C1` was > 4 mM (inactive).

With `O=C(NC1=NCCS1)c1ccc(Cl)s1`, the Kd is > 4 mM (inactive).

Regarding `S=C(Nc1ccccc1)Nc1nncs1`, the Kd is > 4 mM (inactive). As for `O=C(COc1cccc(Cl)c1)N1CCOCC1`, the Kd result was “inactive”. For the molecule `Cc1cc(N)n(-c2ccccc2)n1`, the Kd was > 4 mM (inactive). The value for `O=c1ccc2cc(O)c(O)cc2o1` was > 4 mM (inactive). The value for `CN1C(=O)c2ccc(C(=O)NC3CCCCC3)cc2C1=O` was > 4 mM (inactive).

In the case of `Cc1cc(C)n(-c2ccc(N)cc2)n1`, the Kd is > 4 mM (inactive). Regarding `O=P(O)(Cc1ccccc1)c1ccccc1`, the Kd was > 4 mM (inactive). The value for `CCn1cnc2cc(NCc3ccncc3)ccc21` was > 4 mM (inactive); that for `COc1cc(/C=C/C(=O)/C=C(O)/C=C/c2ccc(O)c(OC)c2)ccc1O` was > 4 mM (inactive). The value for `O=C1CN(c2ccccc2)CC(=O)N1` was > 4 mM (inactive); that for `C[C@@H]1C(=O)OC2[C@H](O)C34[C@@H]5OC(=O)[C@@]3(O[C@@H]3OC(=O)[C@H](O)[C@@]34[C@H](C(C)(C)C)[C@H]5O)[C@]21O` (stereo partly specified) was > 4 mM (inactive); that for `O=C1C2CCCCC2C(=O)N1Cc1cccnc1` (stereo unspecified) was > 4 mM (inactive). In the case of `Cn1cnnc1SCCCNC(=O)Nc1ncccn1`, the Kd was > 4 mM (inactive). The value for `Cc1ccccc1NC(=S)NCCO` was > 4 mM (inactive); that for `Cc1cc(C)n(S(=O)(=O)c2cc(C)c(C)cc2C)n1` was > 4 mM (inactive); that for `CC(C)(C)CC(=O)NC1=NCCS1` was > 4 mM (inactive). The value for `Cc1ccc(=O)[nH]c1` was > 4 mM (inactive). The value for `NC(=O)c1ccc(NC(=O)c2ccco2)cc1` was > 4 mM (inactive); that for `c1ccc(-c2noc(-c3ccc4c(c3)OCO4)n2)nc1` was > 4 mM (inactive). For `COc1ccc(Cl)cc1NS(=O)(=O)N1CCOCC1`, the Kd result is “inactive”. The value for `Cc1cc(C(=O)N2CCN(S(C)(=O)=O)CC2)cs1` was > 4 mM (inactive). For `COc1ccc(-c2noc(-c3ccco3)n2)cc1OC`, the Kd is > 4 mM (inactive). On to `CC(=O)N1CCN(c2ccc(O)cc2)CC1`, for which the Kd is > 4 mM (inactive). Take `O=C(Nc1nnc(-c2ccco2)o1)C1=COCCO1`: the Kd is > 4 mM (inactive).

In the case of `NC(c1ccccc1)c1ccccn1` (stereo unspecified), the Kd is > 4 mM (inactive). The value for `S=c1oc(-c2ccncc2)nn1CCc1ccncc1` was “inactive”. As to `C[C@@H]1CCC2[C@](C)(CO)[C@@H](O)CC[C@]2(C)[C@@]12CC[C@@](CO)(CCO)O2` (stereo partly specified), the Kd was > 4 mM (inactive). The value for `O=C1CC(=O)N(c2ccccc2)c2ccccc21` was > 4 mM (inactive); that for `CC1(C)CC2(CCO1)NCCN1C(=O)CSC12` (stereo unspecified) was > 4 mM (inactive); that for `COc1cc(C(=S)N2CCOCC2)ccc1O` was > 4 mM (inactive). As for `CCCCCC1C(=O)CCC1CC(=O)O` (stereo unspecified), the Kd is > 4 mM (inactive).

For `Cn1c2ccccc2n2c(=S)[nH]nc12`, the Kd was > 4 mM (inactive). The value for `CC(C)(CO)NC(=O)c1ccccc1F` was > 4 mM (inactive); that for `CC(=O)Nc1cc(S(=O)(=O)N(C)C)ccc1Cl` was > 4 mM (inactive); that for `CCOC(=O)c1ccc(NS(=O)(=O)N2CCOCC2)cc1` was “inactive”. The value for `NS(=O)(=O)c1ccc(F)cc1` was > 4 mM (inactive); that for `COCc1cc(=O)oc2cc(N)ccc12` was > 4 mM (inactive); that for `O=c1c(-c2cccs2)[n+]([O-])c2ccccc2n1O` was > 4 mM (inactive). As to `COC(=O)c1cccnc1Oc1ccccc1`, the Kd was > 4 mM (inactive).

Regarding `Cc1cc(C(=O)Nc2ccc3c(c2)OCO3)cs1`, the Kd is > 4 mM (inactive).

Take `CC(NC(=O)c1ccco1)c1ccc2c(c1)OCCO2` (stereo unspecified): the Kd was > 4 mM (inactive). The value for `O=C(NCC1CCNCC1)c1ccccn1` was > 4 mM (inactive); that for `COc1ccc([C@@H]2CC(=O)c3c(O)cc(O[C@@H]4O[C@H](CO[C@H]5O[C@@H](C)[C@H](O)[C@@H](O)[C@H]5O)[C@@H](O)[C@H](O)[C@H]4O)cc3O2)cc1O` was > 4 mM (inactive).

Take `Nc1ccc(Cl)nn1`: the Kd is > 4 mM (inactive). The value for `NC1CS(=O)(=O)CC1O` (stereo unspecified) was > 4 mM (inactive).

Take `Cc1cc(OCC(=O)N2CCOCC2)cc(C)c1Cl`: the Kd entry is “inactive”. The value for `C=C(C)[C@H]1COc2cc3oc(=O)ccc3cc2O1` was > 4 mM (inactive); that for `Cc1onc(-c2ccccc2)c1C(=O)O` was > 4 mM (inactive); that for `COC(=O)C1CSCC1=O` (stereo unspecified) was > 4 mM (inactive). With `Cc1nnc(NCCO)[nH]c1=O`, the Kd is > 4 mM (inactive). Turning to `Cc1c(CO)cnn1-c1ccccc1`, the Kd is > 4 mM (inactive). `O=C(O)c1ccc2c(c1)OCCCO2`: the Kd was > 4 mM (inactive). The value for `NC(=O)C1CCN(C(=O)CN2CCc3ccccc32)CC1` was > 4 mM (inactive); that for `CN1CCN(C(=O)c2ccco2)CC1` was > 4 mM (inactive). The value for `C[C@H]1[C@H](C)CC[C@]2(C(=O)O)CC[C@]3(C)C(=CCC4[C@@]5(C)C[C@@H](O)[C@H](O)[C@@](C)(CO)C5[C@H](O)C[C@]43C)[C@H]12` (stereo partly specified) was > 4 mM (inactive). For the molecule `O=C(C1COc2ccccc2O1)N1CCOCC1` (stereo unspecified), the Kd result is “inactive”. As to `Cc1occc1C(=O)Nc1ccc2c(c1)CCC2`, the Kd is > 4 mM (inactive).

In the case of `COC(=O)Cc1csc(N)n1`, the Kd was > 4 mM (inactive). The value for `O=C1CC(=O)N(c2cccc(Cl)c2)N1` was > 4 mM (inactive); that for `CC(C)NC(=O)c1cc(-n2cnnc2)ccc1Cl` was > 4 mM (inactive).
